pKd: −log10 of the molar value.
Experiments:
[1] = molecular target: T1, bovine derivation odorant binding protein (OBPb) (Bos taurus, UniProt P07435); assay: Fluorometry of tryptophane fluorescence of OBPb with four odorants (Inventive Example 1); details: for affinity for the OBPb (relative, among the four odorants): FIG. 4(b); for reduction of the fluorescence intensity: odorant 10 μM, OBPb 250 nM, excitation 280 nm, fluorescence 340 nm, among the four odorants, FIG. 4(b) at 10 minutes
T1 sequence (P07435 1-159): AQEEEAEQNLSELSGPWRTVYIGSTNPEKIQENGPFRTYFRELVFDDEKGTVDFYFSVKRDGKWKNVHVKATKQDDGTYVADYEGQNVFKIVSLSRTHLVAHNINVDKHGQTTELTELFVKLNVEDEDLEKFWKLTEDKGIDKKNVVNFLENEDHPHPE
Protocol: In order to prepare the OBPb solution employed for Inventive Example 1, bovine derivation odorant binding protein (OBPb) was first dissolved in a phosphate buffer (PBS; phosphate buffered saline), and PBS was further added to this OBPb solution for diluting the same until the concentration of the solution reached 250 nM.
In order to prepare the odorant solution employed for Inventive Example 1, four types of odorants, i.e., dimethyl octanol (DMO), citronellal, citronellol and geraniol were dissolved in ethanol solutions (EtOH) respectively, for preparing an odorant solution of 10^−2 M in concentration as to each odorant.
300 μl of the OBPb solution of 250 nM in concentration and 0.3 μl of each odorant solution of 10^−2 M in concentration prepared in the aforementioned manner were mixed with each other for preparing a sample solution employed for measuring fluorescence intensity as to each of the four types of odorants. In this case, the final concentration of the odorant in each sample solution is 10 μM. A sample of only OBPb containing no odorant, i.e., that obtained by mixing an OBPb solution and an ethanol solution with each other, was also prepared as a comparative sample.
Each sample solution prepared in the aforementioned manner was introduced into a quartz cell for fluorescence while sealing an opening for preventing evaporation. The aforementioned cell was set in a cell holder of a fluorometer (F-4000 by Hitachi, Ltd.) and left to stand for 10 minutes for temperature balancing.
In measurement of the fluorescence intensity of each sample solution, a shutter of the fluorometer was first opened for irradiating the sample solution with light of 280 nm in wavelength from a slit of 10 nm in width and exciting tryptophane constituting the OBPb contained in the sample solution. Fluorescence of 340 nm in wavelength obtained from the tryptophane excited in this manner was taken out through the slit of 10 nm in width, for measuring the intensity of the obtained fluorescence.
In this case, the switching time for the shutter of the fluorometer was set to two seconds for opening/closing the shutter at intervals of five minutes and measuring the fluorescence intensity of the sample solution over 30 minutes.
Referring to FIG. 4, the point of initiation of measurement is set to the point of the elapsed time of 0 minutes, and the fluorescence intensity of the sample solution at this point is set to 100%. Thus, the fluorescence intensity at the elapsed time of 0 minutes, i.e., the point of initiation of measurement was set to 100% as to each sample solution for regarding this as a reference value and calculating a relative value of the fluorescence at each point every five minutes on the basis of this reference value.

[2] = molecular target: T2, OBPb-norm central pocket CP (Bos taurus, UniProt P07435); assay: Time variation of peaks of tryptophane difference fluorescence spectra, OBPb-norm; type: binding, bovine; details: 0 to 60 minutes after addition
T2 sequence (P07435 1-159): T1 sequence (P07435 1-159)
Description: (§1) Then, time variations of peaks of fluorescence spectra of tryptophane in central pockets CP bonded with odorants were investigated as to DMO and geraniol employed as odorants.
(§2) When tryptophane is in OBPb, the peak wavelength of the fluorescence spectrum of tryptophane is 345 nm. In general, the fluorescence wavelength of tryptophane shifts to a longer wavelength in hydrophilic environment, and shifts to a shorter wavelength in hydrophobic environment. At this point, a fluorescence spectrum upon bonding with an odorant was measured for calculating difference between the same and a spectrum at 0 minutes and investigating the relation between the peak intensity and the elapsed time.
(§3) The difference spectrum was calculated by subtracting the fluorescence spectrum at each time from the fluorescence spectrum at 0 minutes. When a peak of the fluorescence spectrum at a certain time shifts to a shorter wavelength beyond 345 nm (i.e., rendered hydrophobic), therefore, it follows that the peak of the difference spectrum shifts to a longer wavelength beyond 345 nm to the contrary.

[3] = molecular target: T1, bovine derivation odorant binding protein (OBPb); assay: Fluorometry of OBPb with DMO and BPA at different concentrations (Inventive Example 2); details: for attenuation of fluorescence intensity versus concentration: 10^−9 to 10^−6 M
Protocol: In preparation of the OBPb solution employed for Inventive Example 2, an OBPb solution of 250 nM in concentration was prepared by a method similar to that in Inventive Example 1.
In preparation of the DMO solutions and the BPA solutions employed for Inventive Example 2, on the other hand, two types of odorants of DMO and BPA were dissolved in ethanol (EtOH) respectively, for preparing a solution of 10^−2 M in concentration as to each odorant. Further, the DMO solution and the BPA solution of 10^−2 M in concentration prepared in the aforementioned manner were diluted with EtOH respectively, thereby preparing solutions of 10^−3 M, 10^−4 M, 10^−5 M and 10^−6 M in concentration respectively. Thus, DMO solutions and BPA solutions of 10^−3 M, 10^−4 M, 10^−5 M and 10^−6 M in concentration were prepared.
300 μl of the OBPb solution of 250 nM in concentration and 0.3 μl of each of the DMO solutions of 10^−3 M, 10^−4 M, 10^−5 M and 10^−6 M in concentration prepared in the aforementioned manner were mixed with each other thereby preparing sample solutions having final DMO concentrations of 10^−9 M, 10^−8 M, 10^−7 M and 10^−6 M respectively. Sample solutions having final concentrations of 10^−9 M, 10^−8 M, 10^−7 M and 10^−6 M respectively were prepared also as to BPA by a preparation method similar to that for the case of DMO.
After preparing the sample solutions in the aforementioned manner, the fluorescence intensity was measured as to each sample solution by a method similar to that in Inventive Example 1. Further, the relation between the concentrations and the fluorescence intensity of DMO and BPA was investigated on the basis of results at a point after a lapse of 20 minutes from initiation of measurement and at a point after a lapse of 30 minutes from initiation of measurement among results obtained by measuring the fluorescence intensity.
Also in this case, the point of initiation of measurement was set to the point of an elapsed time of 0 minutes while setting the fluorescence intensity at this point to 100% as a reference value for calculating a relative value of the fluorescence intensity at each point on the basis of this reference value.

OBPb bonded with AMA = molecular target: T3, OBPb bonded with AMA (Bos taurus, UniProt P07435); assay: Substitution of AMA bonded to OBPb by other odorants (AMA and tyrosine fluorescence); type: binding, bovine; details: for fluorescence intensity of tyrosine on adding the odorant: ex 250 nm, em 300 nm, immediately after addition (0 minutes); for fluorescence intensity of AMA / dissociation of AMA from OBPb on adding the odorant: ex 295 nm, em 481 nm, 0 minutes
T3 sequence (P07435 1-159): T1 sequence (P07435 1-159)
Protocol: Further, investigation was made as to how an odorant once bonded to OBPb behaves when other odorants are thereafter bonded. Aminoanthracene (AMA) which is a fluorescent odorant was employed as a previously bonded odorant, and DMO and geraniol were used as odorants added to the AMA bond.
(§4) An OBPb solution of 10 μM in concentration was prepared. AMA, DMO and geraniol were dissolved in ethanol respectively, for preparing an AMA solution, a DMO solution and a geraniol solution of 10^−2 M in concentration.
First, 0.1 μl of an AMA solution was added to 100 μl of an OBPb solution, and left to stand at 25° C. for one hour for bonding AMA to OBPb. Phosphate buffer saline (PBS) was added to this solution up to 4 ml (diluted to 40 times), 4 μl of ethanol, DMO or geraniol was added and thereafter parts of 300 μl were taken out after lapses of 0, 5, 10, 15, 20, 25, 30, 40 and 60 minutes for measuring fluorescence intensity of AMA (excitation wavelength: 295 nm, measurement wavelength: 481 nm) and fluorescence intensity of […].
In measurement of the fluorescence intensity of tyrosine, the excitation wavelength is 250 nm, and the measurement wavelength is 300 nm. Tyrosine is present in an internal cavity of a monomer of OBPb. Therefore, dissociation of the odorant from the internal cavity IC can be measured by change of the fluorescence intensity of tyrosine (the fluorescence reduces when tyrosine becomes hydrophilic).

OBP-del = molecular target: T4, OBP-del (Bos taurus, UniProt P07435); assay: Time variation of peaks of tryptophane difference fluorescence spectra, OBP-del; type: binding, bovine; details: during bonding reaction, 0 to 60 minutes
T4 construct: made in house
T4 sequence (P07435 1-148): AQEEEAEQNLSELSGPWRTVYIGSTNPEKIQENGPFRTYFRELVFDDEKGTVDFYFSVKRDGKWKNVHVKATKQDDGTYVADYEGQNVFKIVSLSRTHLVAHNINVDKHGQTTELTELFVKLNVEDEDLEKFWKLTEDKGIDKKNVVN
Description: as §1, §2, §3

OBPb [4] = molecular target: T5, OBPb (Bos taurus, UniProt P07435); assay: Dissociation constant KD of odorant for OBPb; type: binding, bovine; details: affinity of odorant for OBPb
T5 sequence (P07435 1-159): T1 sequence (P07435 1-159)

[5] = molecular target: T6, OBPb-del (OBPb with Phe 149 up to Glu 159 deleted) (Bos taurus, UniProt P07435); assay: Relative tryptophane fluorescence intensity change after DMO addition, OBP-del; type: binding, bovine; details: DMO 10 μM, OBPb 250 nM, 25 degrees, ex 295 nm, em 340 nm
T6 construct: made in house
T6 sequence (P07435 1-148): T4 sequence (P07435 1-148)
Protocol: (§5) OBPb-norm shown in FIG. 7(a) is normal (unvaried) OBPb. OBPb-del shown in FIG. 7(b) is OBPb obtained by deleting Phe (phenylalanine) 149 up to Glu (glutamic acid) 159.
(§6) As to the OBPb-norm and the OBP-del, the relation between post-addition elapsed times and change of relative fluorescence intensity was investigated by adding dimethyl octanol (DMO) employed as an odorant to OBPb solutions.
(§7) The concentration of OBPb in PBS was set to 250 nM, and the concentration of a DMO solution was set to 10 μM. The DMO solution was added to the OBPb solution, which in turn was thereafter incubated at 25 degrees, for taking out part at each time and measuring fluorescence (excitation wavelength: 295 nm, fluorescence wavelength: 340 nm) of tryptophane present in the central pocket CP.
(§8) The difference in relative fluorescence intensity was calculated by dividing the difference between fluorescence intensity at a time 0 and fluorescence intensity at each time by the fluorescence intensity at the time 0.

OBPb-norm (normal OBPb) = molecular target: T7, OBPb-norm (normal OBPb) (Bos taurus, UniProt P07435); assay: Relative tryptophane fluorescence intensity change after DMO addition, OBPb-norm; type: binding, bovine; details: DMO 10 μM, OBPb 250 nM, 25 degrees, ex 295 nm, em 340 nm
T7 sequence (P07435 1-159): T1 sequence (P07435 1-159)
Protocol: as §5, §6, §7, §8

OBPb [6] = molecular target: T5, OBPb; assay: Time variation of tryptophane and AMA fluorescence upon addition of AMA to OBPb; type: binding, bovine; details: ex 295 nm
Protocol: as §4
Then, time variations of fluorescence from AMA and fluorescence from tryptophane upon addition of AMA were measured. FIG. 13 illustrates results of measurement of fluorescence intensity change of tryptophane bonded with AMA. The excitation wavelength for tryptophane is 295 nm, and the fluorescence wavelength is 340 nm. FIG. 14 illustrates results of measurement of fluorescence intensity change of AMA bonded with […]. The excitation wavelength for AMA is 295 nm, and the fluorescence wavelength is 480 nm. Referring to FIGS. 13 and 14, the horizontal axes show post-addition elapsed times, and the vertical axis show relative fluorescence intensity difference levels. The relative fluorescence intensity difference was calculated by dividing the difference between fluorescence intensity at a time 0 and fluorescence intensity at each time by the fluorescence intensity at the time 0.

SMILES | affinity for the OBPb (relative, among the four odorants) [1] | reduction of the fluorescence intensity [1] | bonding to the central pocket CP (from peak wavelengths of difference spectra) [2] | attenuation of fluorescence intensity versus concentration ([3]; after 20 and 30 minutes) | range in which discrimination based on the fluorescence intensity is possible ([3]; after 20 and 30 minutes) | range in which discrimination based on the fluorescence intensity is possible ([3]; conversion of 10^−9 M) | fluorescence intensity of tyrosine on adding the odorant (OBPb bonded with AMA) | fluorescence intensity of AMA / dissociation of AMA from OBPb on adding the odorant (OBPb bonded with AMA) | peak wavelengths of the difference spectra of tryptophane (OBP-del) | pKd (OBPb [4]) | relative fluorescence intensity change of tryptophane with time [5] | relative fluorescence intensity change of tryptophane with time (OBPb-norm (normal OBPb)) | fluorescence intensity of tryptophane after addition of AMA (OBPb [6]; em 340 nm) | fluorescence intensity of AMA after addition of AMA (OBPb [6]; em 480 nm)
CC(C)CCCC(C)CCO (stereo not shown) [DMO] | highest affinity | at the minimum | dissociates after being bonded to the central pocket CP | attenuation of the fluorescence intensity is reduced as the concentration of DMO or BPA is increased | 10^−9 M | about 200 ppt | No change of the fluorescence intensity was observed | AMA dissociates immediately after addition | remained unchanged | ~6.52 | no variation with presence/absence of the odorant | rises with time |  | 
CC(C)(c1ccc(O)cc1)c1ccc(O)cc1 [BPA, bisphenol A] |  |  |  | attenuation of the fluorescence intensity is reduced as the concentration of DMO or BPA is increased | 10^−9 M | about 200 ppt |  |  |  |  |  |  |  | 
Nc1cccc2cc3ccccc3cc12 [AMA, Aminoanthracene] |  |  |  |  |  |  |  |  |  | ~5.89 |  |  | temporarily reduces after addition of AMA and thereafter increases | increases after addition of AMA, takes a constant value and thereafter reduces
CC(C)=CCC/C(C)=C/CO [geraniol] | lowest affinity | at the maximum | remains bonded to the central pocket CP |  |  |  | reduction of the fluorescence intensity was observed | AMA dissociates immediately after addition | remained unchanged | ~5.52 |  |  |  | 

— US20020177168A1, “Chemical sensor and method of detecting chemicals” (priority 2000, published 2002)
